Laboratory results published in US20170274014A1, “COMBINATIONS OF LOW, IMMUNE ENHANCING, DOSES OF MTOR INHIBITORS AND CARS” (Novartis AG, priority 2014, published 2017).

Key:
[1] = system: NFAT inducible promoter driven luciferase activity; assay type: cell-based; conditions: PDL1-Fc coated plate as compared to control treatment by IgG1-Fc; Jurkat JNL cells
Method: Jurkat cells with NFAT-LUC reporter (JNL) were grown to the density of 0.5×10^6/ml in Jurket cell growth media with puromycin at 0.5 μg/ml. For each transfection 3×10^6 cells were spin down at 100 g for 10 minutes. Four μg DNA per construct were used per transfection. Amaxa Nucleofector solution V and supplement I was mixed and 100 μl was added into the tube with DNA construct. The mixture was then added to the cells and transferred to the electroporation cuvette. Electroporation was done under setting X-001 using Amaxa Nucleofector II Device. 0.5 ml of growth media was added immediately after electroporation and the mixture were transferred into 2 ml growth media in one well of the 6-well plate. After two hours, the rapalogue compound at various concentrations was added to cells. The cells were applied to tissue culture plate wells that were coated by the target. Tissue culture plate was coated with 5 μg/ml of PDL1-Fc or IgG1-Fc or any target for 2 hrs at 37° C., then blocked with the blocking buffer (DPBS with 5% serum) for 30 minutes. The transfected cells were added to the target plate with 100 μl per well and incubated further for 16 hrs. Luciferase One Glo reagent 100 μl was added per well. The samples were incubated for 5 min at 37° C. and then luminescence is measured using Envision plate reader.

[2] = mice; cited from earlier work
influenza = conditions: mice vaccinated against influenza in the presence of rapamycin; cited from earlier work
[3] = old mice; cited from earlier work
influenza vaccination = conditions: elderly mice, 6 weeks of treatment; cited from earlier work
mTOR = mTOR (Homo sapiens, UniProt P42345); conditions: low concentration; cited from earlier work
PI3K/mTOR = conditions: relatively higher concentrations; cited from earlier work

## PD1 CAR: CAR construct PD1-ECD-TM-4-1BB-CD3zeta, SEQ ID NO: 26
[1]
  Activation of NFAT inducible promoter driven luciferase activity: significant PD1 induced activation

## CO[C@H]1C[C@@H]2CC[C@@H](C)[C@@](O)(O2)C(=O)C(=O)N2CCCC[C@H]2C(=O)O[C@H]([C@H](C)C[C@@H]2CC[C@@H](O)[C@H](OC)C2)CC(=O)[C@H](C)/C=C(\C)[C@@H](O)[C@@H](OC)C(=O)[C@H](C)C[C@H](C)/C=C/C=C/C=C/1C [rapamycin]
[2]
  Lifespan: extend lifespan
influenza
  Serologic response to influenza as compared to placebo: broader serologic response
[3]
  Spontaneous physical activity: increases spontaneous physical activity
Influenza vaccination
  Response to influenza vaccination: improved response to influenza vaccination

## Cn1c(=O)n(-c2ccc(C(C)(C)C#N)cc2)c2c3cc(-c4cnc5ccccc5c4)ccc3ncc21 [BEZ235, 2-methyl-2-[4-(3-methyl-2-oxo-8-quinolin-3-yl-2,3-dihydro-imidazo[4,5-c]quinolin-1-yl)-phenyl]-propionitrile]
mTOR
  concentration at which mTOR inhibition predominates: less than 100 nmol/L
PI3K/mTOR
  concentration giving dual PI3K/mTOR inhibition: approximately 500 nmol/L
